These results are taken from ChEMBL document CHEMBL2311263, “Dibenzosuberones as p38 mitogen-activated protein kinase inhibitors with low ATP competitiveness and outstanding whole blood activity” (J Med Chem, 2013).

Assay [1] deals with T1, Mitogen-activated protein kinase 14 (Homo sapiens, UniProt Q16539). Nature of the assay: Inhibition of p38alpha MAP kinase (unknown origin) by ELISA.
Assay [2] addresses T1, Mitogen-activated protein kinase 14. The experiment in a line: Inhibition of p38alpha MAP kinase in whole blood (unknown origin) assessed as lipopolysaccharide-stimulated TNF-alpha release by ELISA.
For assay [3] the target is unchanged. To be noted: Blood, 1 uM.
The target is the same in assay [4]. Nature of the assay: Inhibition of p38alpha MAP kinase in whole blood (unknown origin) assessed as lipopolysaccharide-stimulated TNF-alpha release measuring residual activity at 10 uM by ELISA.
Assay [5] deals with Mitogen-activated protein kinase 11 (Homo sapiens) (UniProt Q15759). The experiment in a line: Inhibition of p38beta MAP kinase (unknown origin).
Sequence of Mitogen-activated protein kinase 11 (Homo sapiens) (Q15759 whole entry, canonical isoform): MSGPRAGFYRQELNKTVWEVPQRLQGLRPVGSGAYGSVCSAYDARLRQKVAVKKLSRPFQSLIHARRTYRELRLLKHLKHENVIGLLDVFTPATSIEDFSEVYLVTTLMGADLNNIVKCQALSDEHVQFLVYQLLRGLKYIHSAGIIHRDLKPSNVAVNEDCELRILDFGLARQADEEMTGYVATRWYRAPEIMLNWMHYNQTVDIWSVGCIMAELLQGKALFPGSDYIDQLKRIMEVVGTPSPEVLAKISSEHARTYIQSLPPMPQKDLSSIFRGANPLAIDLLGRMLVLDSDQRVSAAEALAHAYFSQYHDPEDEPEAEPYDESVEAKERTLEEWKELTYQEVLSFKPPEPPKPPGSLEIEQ
The target in assay [6] is Casein kinase I isoform epsilon (Homo sapiens) (UniProt P49674). The experiment in a line: Inhibition of CSNK1E (unknown origin).
Sequence of Casein kinase I isoform epsilon (Homo sapiens) (P49674 whole entry, looked up, canonical isoform): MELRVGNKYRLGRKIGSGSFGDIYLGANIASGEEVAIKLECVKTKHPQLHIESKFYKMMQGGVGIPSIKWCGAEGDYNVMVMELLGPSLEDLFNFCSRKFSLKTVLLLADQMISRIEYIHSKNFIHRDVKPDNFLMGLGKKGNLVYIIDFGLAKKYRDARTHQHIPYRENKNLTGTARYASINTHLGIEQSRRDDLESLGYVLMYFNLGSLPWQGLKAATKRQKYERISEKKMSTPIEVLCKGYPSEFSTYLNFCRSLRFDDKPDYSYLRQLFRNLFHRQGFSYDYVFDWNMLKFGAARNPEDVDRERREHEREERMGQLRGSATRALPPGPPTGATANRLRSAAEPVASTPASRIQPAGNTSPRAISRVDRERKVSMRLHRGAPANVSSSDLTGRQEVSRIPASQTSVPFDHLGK

Molecules are shown by their SMILES. Activity calls are given as the source filed them. The calls are words filed in the database; no cut-off is given here.

T1 sequence (Q16539 whole entry): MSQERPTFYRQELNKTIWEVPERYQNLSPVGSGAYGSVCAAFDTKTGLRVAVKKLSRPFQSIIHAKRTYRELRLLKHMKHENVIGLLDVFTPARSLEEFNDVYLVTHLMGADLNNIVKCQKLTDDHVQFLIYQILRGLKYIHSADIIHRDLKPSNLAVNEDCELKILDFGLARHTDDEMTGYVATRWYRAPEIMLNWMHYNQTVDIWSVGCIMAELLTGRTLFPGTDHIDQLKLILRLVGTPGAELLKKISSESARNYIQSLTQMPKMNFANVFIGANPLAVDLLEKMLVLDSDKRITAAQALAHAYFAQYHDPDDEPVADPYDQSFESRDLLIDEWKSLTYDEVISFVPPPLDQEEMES

Consider `NC(=O)c1ccc2c(c1)C(=O)c1ccc(Nc3ccc(F)cc3F)cc1CC2`, for which the IC50 in assay [1] was found to be 10 nM; in assay [2] it was 19 nM.
On the same counts, the results for `Cc1cc(F)c(NC(=O)c2ccoc2)cc1Nc1ccc2c(c1)CCc1ccc(OCCN3CCOCC3)cc1C2=O` are 1 nM and 32 nM.
As for `O=C(Nc1ccc(F)c(Nc2ccc3c(c2)CCc2ccc(OCCO)cc2C3=O)c1)c1ccccc1`, the IC50 in assay [1] stood at 2 nM; in assay [2], 9000 nM.
Turning to `CC(C)C[C@H](NC(=O)c1ccc2c(c1)C(=O)c1ccc(Nc3ccc(F)cc3F)cc1CC2)C(=O)O`, the IC50 in assay [1] was 94 nM. Moreover, in assay [3], the inhibition entry is “inactive”.
Turning to `COC(=O)CC[C@H](NC(=O)c1ccc2c(c1)C(=O)c1ccc(Nc3ccc(F)cc3F)cc1CC2)C(=O)OC`, the IC50 worked out at 5 nM in assay [1] and 18 nM in assay [2].
On the same counts, the results for `COCCNC(=O)c1ccc2c(c1)C(=O)c1ccc(Nc3ccc(F)cc3F)cc1CC2` are 5 nM and 54 nM.
On the same counts, the results for `CS(=O)(=O)CCNC(=O)c1ccc2c(c1)C(=O)c1ccc(Nc3ccc(F)cc3F)cc1CC2` are 3 nM and 50 nM.
The corresponding values for `O=C(Nc1cc(Nc2ccc3c(c2)CCc2ccc(OCCN4CCOCC4)cc2C3=O)ccc1F)c1ccsc1` are 0.3 nM and 26 nM.
For `CCOC(=O)c1ccc2c(c1)C(=O)c1ccc(Nc3ccc(F)cc3F)cc1CC2`, the IC50 stood at 3 nM in assay [1] and 270 nM in assay [2].
As for `CC1(C)OC[C@H](COc2ccc3c(c2)C(=O)c2ccc(Nc4ccc(F)c(NC(=O)c5cccs5)c4)cc2CC3)O1`, the results for the half-inhibitory concentration (IC50) in assay [1] and in assay [2] were 2 nM and 300 nM, respectively.
On the same counts, the results for `CN1CCN(CCCNC(=O)c2ccc3c(c2)C(=O)c2ccc(Nc4ccc(F)cc4F)cc2CC3)CC1` are 10 nM and 19 nM.
For the compound `COc1ccc2c(c1)C(=O)c1ccc(Nc3ccc(F)c(NC(=O)c4ccccc4)c3)cc1CC2`, the half-inhibitory concentration (IC50) in assay [1] amounted to 21 nM; in assay [2], 4100 nM.
The corresponding values for `O=C1c2ccc(Nc3cc(NC(=O)C4CCOC4)c(F)cc3F)cc2CCc2ccc(OCCN3CCOCC3)cc21` (configuration not stated) are 12 nM and 150 nM.
The corresponding values for `O=C(Nc1cc(Nc2ccc3c(c2)CCc2ccc(OCCN4CCOCC4)cc2C3=O)ccc1F)c1ccoc1` are 1 nM and 110 nM.
On the same counts, the results for `O=C(Nc1cc(Nc2ccc3c(c2)CCc2ccccc2C3=O)c(F)cc1F)c1ccccc1` are 4 nM and 290 nM.
For `O=C(Nc1cc(Nc2ccc3c(c2)CCc2ccc(OC[C@H](O)CO)cc2C3=O)ccc1F)c1cccs1`, the IC50 in assay [1] turned out to be 7 nM; in assay [2], 42 nM.
For the compound `O=C(Nc1cc(Nc2ccc3c(c2)CCc2ccc(OCCN4CCOCC4)cc2C3=O)c(F)cc1F)c1ccccc1`, the concentration for half-maximal inhibition (IC50) is 1 nM in assay [1] and 220 nM in assay [2].
On the same counts, the results for `O=C(NC(CO)CO)c1ccc2c(c1)C(=O)c1ccc(Nc3ccc(F)cc3F)cc1CC2` are 9 nM and 17 nM.
For the compound `CC(=O)Oc1ccc2c(c1)C(=O)c1ccc(Nc3ccc(F)cc3F)cc1CC2`, the IC50 in assay [1] amounted to 29 nM; in assay [2], 2300 nM.
On the same counts, the results for `O=C1c2ccc(Nc3ccc(F)c(NC(=O)C4CCOC4)c3)cc2CCc2ccc(OCCO)cc21` (configuration not stated) are 20 nM and 1500 nM.
With `O=C(Nc1cc(Nc2ccc3c(c2)CCc2ccc(OCCO)cc2C3=O)ccc1F)c1ccccc1`, the 50% inhibitory concentration (IC50) was found to be 2 nM in assay [1] and 2400 nM in assay [2].
On the same counts, the results for `CN1CCN(CCNC(=O)c2ccc3c(c2)C(=O)c2ccc(Nc4ccc(F)cc4F)cc2CC3)CC1` are 10 nM and 27 nM.
The corresponding values for `O=C(OCCO)c1ccc2c(c1)C(=O)c1ccc(Nc3ccc(F)cc3F)cc1CC2` are 2 nM and 210 nM.
On the same counts, the results for `CN(C)CCNC(=O)c1ccc2c(c1)C(=O)c1ccc(Nc3ccc(F)cc3F)cc1CC2` are 3 nM and 18 nM.
Regarding `O=C(NCCCl)c1ccc2c(c1)C(=O)c1ccc(Nc3ccc(F)cc3F)cc1CC2`, the half-inhibitory concentration (IC50) is 3 nM in assay [1] and 64 nM in assay [2].
The corresponding values for `COC(=O)c1ccc2c(c1)C(=O)c1ccc(Nc3ccc(F)cc3F)cc1CC2` are 2 nM and 160 nM.
On the same counts, the results for `COC(=O)[C@H](CC(C)C)NC(=O)c1ccc2c(c1)C(=O)c1ccc(Nc3ccc(F)cc3F)cc1CC2` are 7 nM and 460 nM.
For `O=C(NCCO)c1ccc2c(c1)C(=O)c1ccc(Nc3ccc(F)cc3F)cc1CC2`, the IC50 in assay [1] stood at 5 nM; in assay [2] it was 27 nM.
On the same counts, the results for `CNC(=O)c1ccc2c(c1)C(=O)c1ccc(Nc3ccc(F)cc3F)cc1CC2` are 3 nM and 37 nM.
The corresponding values for `CSCCNC(=O)c1ccc2c(c1)C(=O)c1ccc(Nc3ccc(F)cc3F)cc1CC2` are 2 nM and 36 nM.
In assay [1], `O=C1c2ccc(Nc3ccc(F)cc3F)cc2CCc2ccc(C(=O)N3CCOCC3)cc21` gave an IC50 of 44 nM. The Activity in assay [4] amounted to 39%.
`CNC(=O)CC[C@H](NC(=O)c1ccc2c(c1)C(=O)c1ccc(Nc3ccc(F)cc3F)cc1CC2)C(=O)NC`: the half-inhibitory concentration (IC50) amounted to 14 nM in assay [1] and 64 nM in assay [2].
The corresponding values for `O=C(Nc1cc(Nc2ccc3c(c2)CCc2ccc(OCCN4CCOCC4)cc2C3=O)ccc1F)c1ccccc1` are 1 nM and 260 nM.
The corresponding values for `Cc1cc(F)c(NC(=O)C2CCOC2)cc1Nc1ccc2c(c1)CCc1ccc(OCCN3CCOCC3)cc1C2=O` (configuration not stated) are 98 nM and 570 nM.
The corresponding values for `O=C(NCCF)c1ccc2c(c1)C(=O)c1ccc(Nc3ccc(F)cc3F)cc1CC2` are 2 nM and 83 nM.
With `O=C(NCC(O)CO)c1ccc2c(c1)C(=O)c1ccc(Nc3ccc(F)cc3F)cc1CC2` (configuration not stated), the IC50 in assay [1] came to 2 nM; in assay [2], 29 nM. Further, in assay [5], the inhibition entry was “Active”.
For the compound `CC1(C)OC[C@@H](COc2ccc3c(c2)C(=O)c2ccc(Nc4ccc(F)c(NC(=O)c5ccccc5)c4)cc2CC3)O1`, the IC50 worked out at 27 nM in assay [1] and 450 nM in assay [2].
In the case of `O=C(Nc1cc(Nc2ccc3c(c2)CCc2ccc(OCCN4CCOCC4)cc2C3=O)c(F)cc1F)c1ccsc1`, in assay [2], the IC50 worked out at 12 nM.
Regarding `CCCOC(=O)c1ccc2c(c1)C(=O)c1ccc(Nc3ccc(F)cc3F)cc1CC2`, the half-inhibitory concentration (IC50) in assay [1] was 8 nM; in assay [2] it was 220 nM.
With `CCOC(=O)CNC(=O)c1ccc2c(c1)C(=O)c1ccc(Nc3ccc(F)cc3F)cc1CC2`, the IC50 in assay [1] is 6 nM; in assay [2], 95 nM.
Regarding `O=C(Nc1cc(Nc2ccc3c(c2)CCc2ccc(OCCN4CCOCC4)cc2C3=O)ccc1F)c1cccs1`, the 50% inhibitory concentration (IC50) in assay [1] came out at 0.7 nM; in assay [2], 95 nM.
The corresponding values for `O=C(OCCN1CCOCC1)c1ccc2c(c1)C(=O)c1ccc(Nc3ccc(F)cc3F)cc1CC2` are 1 nM and 240 nM.
As for `O=C(O)c1ccc2c(c1)C(=O)c1ccc(Nc3ccc(F)cc3F)cc1CC2`, the results for the IC50 in assay [1] and in assay [2] were 11 nM and 490 nM, respectively.
The corresponding values for `O=C(NCCN1CCOCC1)c1ccc2c(c1)C(=O)c1ccc(Nc3ccc(F)cc3F)cc1CC2` are 3 nM and 29 nM.
On the same counts, the results for `C[C@@H](NC(=O)c1ccc2c(c1)C(=O)c1ccc(Nc3ccc(F)cc3F)cc1CC2)C1CCCCC1` are 89 nM and 7600 nM.
In the case of `O=C(NCCN1CCOCC1)c1ccc2c(c1)C(=O)c1ccc(Nc3ccc(F)c(NC(=O)c4ccccc4)c3)cc1CC2`, the inhibition result in assay [5] and in assay [6] was “Active” each time.
